Source: ChEMBL document CHEMBL4680273, “Teixobactin: A Paving Stone toward a New Class of Antibiotics?” (2020)
In brackets after ≈: the same amount, converted by molar mass. Blank lines part the entries; values can stand above or below the compound they belong to.

Tests used:
Format in all cases: functional
[1] = tested on: Bacillus subtilis; experiment: Antibacterial activity against Bacillus subtilis ATCC 6051 incubated for 24 hrs by CLSI based broth microdilution method
[2] = tested on: Staphylococcus aureus; experiment: Antibacterial activity against Staphylococcus aureus 25923 incubated for 24 hrs by CLSI based broth microdilution method
[3] = tested on: Staphylococcus aureus; experiment: Antibacterial activity against Staphylococcus aureus
[4] = tested on: Staphylococcus epidermidis; experiment: Antibacterial activity against Staphylococcus epidermidis ATCC 14990 incubated for 16 hrs by UV/Visible absorbance method
[5] = tested on: Staphylococcus aureus; experiment: Antibacterial activity against methicillin- resistant Staphylococcus aureus SA86
[6] = tested on: Staphylococcus aureus; experiment: Antibacterial activity against Staphylococcus aureus ATCC 29213
[7] = tested on: Staphylococcus aureus; experiment: Antibacterial activity against Staphylococcus aureus SH1000 incubated for 24 hrs by CLSI-broth microdilution method; conditions: Staphylococcus aureus, SH1000, read-out: MIC
[8] = tested on: Pseudomonas aeruginosa; experiment: Antibacterial activity against Pseudomonas aeruginosa PAO1 incubated for 24 hrs in presence of colistin by Checkerboard assay
[9] = tested on: Bacillus spizizenii; experiment: Antibacterial activity against Bacillus subtilis ATCC 6633 by M07-A9 CLSI method
[10] = tested on: Staphylococcus aureus; experiment: Antibacterial activity against methicillin resistant Staphylococcus aureus
[11] = tested on: Staphylococcus aureus; experiment: Antibacterial activity against methicillin resistant Staphylococcus aureus USA300
[12] = tested on: Bacillus subtilis; experiment: Antibacterial activity against Bacillus subtilis ATCC 6051 incubated for 16 hrs by UV/Visible absorbance method
[13] = tested on: Staphylococcus aureus; experiment: Antibacterial activity against Staphylococcus aureus ATCC 29213 by CLSI-based broth microdilution method
[14] = tested on: Staphylococcus aureus; experiment: Antibacterial activity against Staphylococcus aureus TH4112 incubated for 16 to 20 hrs by CLSI-based broth microdilution method; conditions: time 16-20 hrs
[15] = tested on: Staphylococcus aureus; experiment: Antibacterial activity against methicillin resistant Staphylococcus aureus ATCC 33591 incubated for 24 hrs
[16] = tested on: Staphylococcus aureus; experiment: Antibacterial activity against Staphylococcus aureus ATCC 29213 incubated for 24 hrs by CLSI-based broth microdilution method

Compound: CC[C@H](C)[C@H](NC(=O)[C@@H](Cc1ccccc1)NC)C(=O)N[C@@H](CO)C(=O)N[C@H](CCC(N)=O)C(=O)N[C@@H](C(=O)N[C@H](C(=O)N[C@@H](CO)C(=O)N[C@H]1C(=O)N[C@@H](C)C(=O)N[C@@H](CCCNC(=N)N)C(=O)N[C@@H]([C@@H](C)CC)C(=O)O[C@H]1C)[C@@H](C)CC)[C@@H](C)CC
MIC [1]: 0.4 µg/mL (≈ 0.321 µM)
MIC [2]: 1.6 µg/mL (≈ 1.29 µM)
MIC [3]: 2 µg/mL (≈ 1.61 µM)

MIC [4]: 1 µg/mL (≈ 0.813 µM)
Compound: CC[C@H](C)[C@@H]1NC(=O)[C@H](CCCNC(=N)N)NC(=O)[C@H](C)NC(=O)[C@H](NC(=O)[C@H](CO)NC(=O)[C@@H](NC(=O)[C@H](NC(=O)[C@@H](CCC(N)=O)NC(=O)[C@H](CO)NC(=O)[C@@H](NC(=O)[C@@H](Cc2ccccc2)NC)[C@@H](C)CC)[C@@H](C)CC)[C@@H](C)CC)CNC1=O

Compound: CC[C@H](C)[C@H](NC(=O)[C@@H](Cc1ccccc1)NC)C(=O)N[C@@H](CO)C(=O)N[C@H](CCC(N)=O)C(=O)N[C@@H](C(=O)N[C@H](C(=O)N[C@@H](CO)C(=O)N[C@H]1C(=O)N[C@@H](C)C(=O)NC(CCCN)C(=O)N[C@@H]([C@@H](C)CC)C(=O)O[C@H]1C)[C@@H](C)CC)C(C)C (some centres not stated)
MIC [5]: 16 µg/mL (≈ 13.5 µM)
MIC [6]: 8 µg/mL (≈ 6.73 µM)

MIC [7]: 8 µg/mL (≈ 6.43 µM)
MIC [8]: 64 µg/mL
Compound: CCCCC1NC(=O)[C@H](CCCNC(=N)N)NC(=O)[C@H](C)NC(=O)[C@H](NC(=O)[C@H](CO)NC(=O)[C@@H](NC(=O)[C@H](NC(=O)[C@@H](CCC(N)=O)NC(=O)[C@H](CO)NC(=O)[C@@H](NC(=O)[C@@H](Cc2ccccc2)NC)[C@@H](C)CC)[C@@H](C)CC)[C@@H](C)CC)[C@H](C)OC1=O (some centres not stated)

Compound: CC[C@H](C)[C@H](NC(=O)[C@@H](Cc1ccccc1)NC)C(=O)N[C@@H](CO)C(=O)N[C@H](CCC(N)=O)C(=O)N[C@@H](C(=O)N[C@H](C(=O)N[C@@H](CO)C(=O)N[C@H]1C(=O)N[C@@H](C)C(=O)N[C@@H](Cc2ncc[nH]2)C(=O)N[C@@H]([C@@H](C)CC)C(=O)O[C@H]1C)[C@@H](C)CC)[C@@H](C)CC
MIC [9]: 8 µg/mL (≈ 6.53 µM)
MIC [10]: 2 µg/mL (≈ 1.63 µM)
MIC [11]: 16 µg/mL (≈ 13.1 µM)

Compound: CC[C@H](C)[C@H](NC(=O)[C@@H](Cc1ccccc1)NC)C(=O)N[C@@H](CO)C(=O)N[C@H](CCC(N)=O)C(=O)N[C@@H](C(=O)N[C@H](C(=O)N[C@@H](CO)C(=O)N[C@H]1C(=O)N[C@@H](C)C(=O)NC(CCCN)C(=O)N[C@@H](C(C)C)C(=O)O[C@H]1C)[C@@H](C)CC)[C@@H](C)CC (some centres not stated)
MIC [5]: 8 µg/mL (≈ 6.73 µM)
MIC [6]: 8 µg/mL (≈ 6.73 µM)

MIC [12]: 2 µg/mL (≈ 1.61 µM)
MIC [4]: 2 µg/mL (≈ 1.61 µM)
Compound: CC[C@@H](C)[C@H](NC(=O)[C@H](CCC(N)=O)NC(=O)[C@@H](CO)NC(=O)[C@H](NC(=O)[C@H](Cc1ccccc1)NC)[C@H](C)CC)C(=O)N[C@@H](C(=O)N[C@H](CO)C(=O)N[C@@H]1C(=O)N[C@H](C)C(=O)N[C@H](CCCNC(=N)N)C(=O)N[C@H]([C@H](C)CC)C(=O)O[C@@H]1C)[C@H](C)CC

Compound: CC[C@H](C)[C@H](NC(=O)[C@@H](Cc1ccccc1)NC)C(=O)N[C@@H](CO)C(=O)N[C@H](CCC(N)=O)C(=O)N[C@@H](C(=O)N[C@H](C(=O)N[C@@H](CO)C(=O)N[C@H]1C(=O)N[C@@H](C)C(=O)N[C@@H](CCCNC(N)=O)C(=O)N[C@@H]([C@@H](C)CC)C(=O)O[C@H]1C)[C@@H](C)CC)[C@@H](C)CC
MIC [11]: 16 µg/mL (≈ 12.8 µM)

MIC [13]: 2 µg/mL (≈ 1.63 µM)
Compound: CC[C@H](C)[C@H](NC(=O)[C@H](N)Cc1ccccc1)C(=O)N[C@@H](CO)C(=O)N[C@H](CCC(N)=O)C(=O)N[C@@H](C(=O)N[C@H](C(=O)N[C@@H](CO)C(=O)N[C@H]1C(=O)N[C@@H](C)C(=O)N[C@@H](CCCNC(=N)N)C(=O)N[C@@H]([C@@H](C)CC)C(=O)O[C@H]1C)[C@@H](C)CC)[C@@H](C)CC

MIC [14]: 0.185 µg/mL (≈ 0.151 µM)
Compound: CC[C@H](C)[C@@H]1NC(=O)[C@H](C[C@H]2CNC(=N)N2)NC(=O)[C@H](C)NC(=O)[C@H](NC(=O)[C@H](CO)NC(=O)[C@@H](NC(=O)[C@H](NC(=O)[C@@H](CCC(N)=O)NC(=O)[C@H](CO)NC(=O)[C@@H](NC(=O)[C@@H](Cc2ccccc2)NC)[C@@H](C)CC)[C@@H](C)CC)[C@@H](C)CC)CNC1=O

Compound: CC[C@H](C)[C@H](NC(=O)[C@@H](Cc1ccccc1)NC)C(=O)N[C@@H](CO)C(=O)N[C@H](CCC(N)=O)C(=O)N[C@@H](C(=O)N[C@H](C(=O)N[C@@H](C)C(=O)N[C@H]1C(=O)N[C@@H](C)C(=O)N[C@@H](CCCNC(=N)N)C(=O)N[C@@H]([C@@H](C)CC)C(=O)O[C@H]1C)[C@@H](C)CC)[C@@H](C)CC
MIC [13]: 32 µg/mL (≈ 26 µM)
MIC [15]: 32 µg/mL (≈ 26 µM)

MIC [1]: 0.25 µg/mL (≈ 0.194 µM)
MIC [16]: 4 µg/mL (≈ 3.11 µM)
Compound: CC[C@H](C)[C@H](NC(=O)[C@@H](Cc1ccccc1)NC)C(=O)N[C@@H](CCCCN)C(=O)N[C@H](CCC(N)=O)C(=O)N[C@@H](C(=O)N[C@H](C(=O)N[C@@H](CO)C(=O)N[C@H]1C(=O)N[C@@H](C)C(=O)N[C@@H](CCCNC(=N)N)C(=O)N[C@@H]([C@@H](C)CC)C(=O)O[C@H]1C)[C@@H](C)CC)[C@@H](C)CC
